Measurements reported in PubChem BioAssay AID256 (DTP/NCI, 2004).
Where “and” joins values, the source holds several entries; their conditions need not be identical. Equal entries are not always repeated. Inconclusive results and toxic doses are left out. Positions of bridges follow the written chain, without caps; N, C: chain ends. Residues, ends and D or L forms follow the SMILES beside them.

Test system: CD2F1 mice, L1210 leukemia ip, survival T/C
Assay: NCI In Vivo Anticancer Drug Screen. Data for tumor model L1210 Leukemia (intraperitoneal) in CD2F1 (CDF1) mice
Settings: higher = longer survival
Method in brief: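 Implant tumor; dose compound or vehicle; measure endpoint in both groups; report treated divided by control.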

[1] = endpoint: mean survival time, dose: 25.0 mg/kg/injection, schedule: Q01DX009 (ip), vehicle: saline with Tween-80
[2] = endpoint: mean survival time, dose: 50.0 mg/kg/injection, schedule: Q01DX009 (ip), vehicle: saline with Tween-80
[3] = endpoint: mean survival time, dose: 100.0 mg/kg/injection, schedule: Q01DX001 (ip), vehicle: saline with Tween-80
[4] = endpoint: mean survival time, dose: 200.0 mg/kg/injection, schedule: Q01DX001 (ip), vehicle: saline with Tween-80
[5] = endpoint: mean survival time, dose: 400.0 mg/kg/injection, schedule: Q01DX001 (ip), vehicle: saline with Tween-80
[6] = endpoint: mean survival time, dose: 100.0 mg/kg/injection, schedule: Q04DX003 (ip), vehicle: saline with Tween-80
[7] = endpoint: mean survival time, dose: 200.0 mg/kg/injection, schedule: Q04DX003 (ip), vehicle: saline with Tween-80
[8] = endpoint: mean survival time, dose: 400.0 mg/kg/injection, schedule: Q04DX003 (ip), vehicle: saline with Tween-80

In the case of CN1CC(=O)N=C1N.CN1CC(=O)N=C1N.[Cl][Pt][Cl], the T/C (endpoint: mean survival time, dose: 3.13 mg/kg/injection, schedule: Q04DX003 (ip), vehicle: water) is reported as 102 % of control, the T/C (endpoint: mean survival time, dose: 6.25 mg/kg/injection, schedule: Q04DX003 (ip), vehicle: water) is reported as 96 % of control and the T/C (endpoint: mean survival time, dose: 12.5 mg/kg/injection, schedule: Q04DX003 (ip), vehicle: water) is reported as 96 % of control. For the same compound, the T/C (endpoint: mean survival time, dose: 25.0 mg/kg/injection, schedule: Q04DX003 (ip), vehicle: water) was 100 % of control, the T/C (endpoint: mean survival time, dose: 50.0 mg/kg/injection, schedule: Q04DX003 (ip), vehicle: water) was 102 % of control and the T/C (endpoint: mean survival time, dose: 100.0 mg/kg/injection, schedule: Q04DX003 (ip), vehicle: water) was 92 % of control.

For COC(=O)c1ccc[n+](CCc2c[nH]c3ccccc23)c1, the T/C (endpoint: mean survival time, dose: 12.5 mg/kg/injection, schedule: Q01DX009 (ip), vehicle: saline with Tween-80) was 92 % of control, the T/C [1] was 97 % of control and the T/C [2] was 96 % of control and 107 % of control. The T/C [3] was 101 % of control and the T/C [4] was 96 % of control.

With COC(=O)C(C)C1CCC2C3CCC4CC(OC(C)=O)CCC4(C)C3CC(OC(C)=O)C12C (configuration not stated) the T/C [3] was 95 % of control, the T/C [4] was 103 % of control and the T/C [5] was 94 % of control.

ClCCn1c(CCl)nc2ccccc21 was tested, and the T/C (endpoint: mean survival time, dose: 10.0 mg/kg/injection, schedule: Q01DX009 (ip), vehicle: saline) was 98 % of control and the T/C (endpoint: mean survival time, dose: 20.0 mg/kg/injection, schedule: Q01DX009 (ip), vehicle: saline) was 94 % of control.

Cc1cc(O)cc(=O)o1 was tested, and the T/C (endpoint: mean survival time, dose: 200.0 mg/kg/injection, schedule: Q01DX001 (ip), vehicle: other) was 93 % of control and the T/C (endpoint: mean survival time, dose: 400.0 mg/kg/injection, schedule: Q01DX001 (ip), vehicle: other) was 105 % of control.

With Nc1ccc2ccc(NS(=O)(=O)N3CCCCC3)cc2c1 the T/C (endpoint: median survival time, dose: 25.0 mg/kg/injection, schedule: Q01DX009 (ip), vehicle: saline with Tween-80) was 118 % of control and 101 % of control and 106 % of control, the T/C (endpoint: median survival time, dose: 50.0 mg/kg/injection, schedule: Q01DX009 (ip), vehicle: saline with Tween-80) was 100 % of control and 109 % of control and 112 % of control and the T/C (endpoint: median survival time, dose: 100.0 mg/kg/injection, schedule: Q01DX009 (ip), vehicle: saline with Tween-80) was 114 % of control and 118 % of control and 119 % of control. For the same compound, the T/C (endpoint: median survival time, dose: 400.0 mg/kg/injection, schedule: Q01DX009 (ip), vehicle: saline with Tween-80) was 182 % of control.

For N#CCCOCCNCCSC(=O)c1ccccc1, the T/C [6] was 95 % of control, the T/C [7] was 101 % of control and the T/C [8] was 95 % of control.

CCC(C)C1NC(=O)C(CC(C)C)NC(=O)C(C(C)C)NC(=O)C2CSSCC(NC1=O)C(=O)N2 (configuration not stated) (cyclo(CCVLI); disulfide 1-2; configuration not given here) was tested, and the T/C (endpoint: mean survival time, dose: 31.25 micrograms/kg/injection, schedule: Q01DX009 (ip), vehicle: Klucel (hydroxypropylcellulose) (HPC)) was 93 % of control, the T/C (endpoint: mean survival time, dose: 62.5 micrograms/kg/injection, schedule: Q01DX009 (ip), vehicle: Klucel (hydroxypropylcellulose) (HPC)) was 95 % of control and the T/C (endpoint: mean survival time, dose: 125.0 micrograms/kg/injection, schedule: Q01DX009 (ip), vehicle: Klucel (hydroxypropylcellulose) (HPC)) was 98 % of control. For the same compound, the T/C (endpoint: mean survival time, dose: 250.0 micrograms/kg/injection, schedule: Q01DX009 (ip), vehicle: Klucel (hydroxypropylcellulose) (HPC)) was 96 % of control, the T/C (endpoint: mean survival time, dose: 500.0 micrograms/kg/injection, schedule: Q01DX009 (ip), vehicle: Klucel (hydroxypropylcellulose) (HPC)) was 98 % of control and the T/C (endpoint: mean survival time, dose: 1000.0 micrograms/kg/injection, schedule: Q01DX009 (ip), vehicle: Klucel (hydroxypropylcellulose) (HPC)) was 96 % of control.

In the case of Sc1ccc(Cl)cc1, the T/C [3] is reported as 98 % of control, the T/C [4] is reported as 98 % of control and the T/C [5] is reported as 102 % of control.

Cc1ccccc1C[P+](c1ccccc1)(c1ccccc1)c1ccccc1 was tested, and the T/C (endpoint: mean survival time, dose: 1.0 mg/kg/injection, schedule: Q01DX009 (ip), vehicle: saline) was 88 % of control, the T/C (endpoint: mean survival time, dose: 2.0 mg/kg/injection, schedule: Q01DX009 (ip), vehicle: saline) was 96 % of control and the T/C (endpoint: mean survival time, dose: 4.0 mg/kg/injection, schedule: Q01DX009 (ip), vehicle: saline) was 92 % of control. For the same compound, the T/C (endpoint: mean survival time, dose: 8.0 mg/kg/injection, schedule: Q01DX009 (ip), vehicle: saline) was 108 % of control.

With CC(=O)CCC(=O)C1SCCS1 the T/C (endpoint: mean survival time, dose: 100.0 mg/kg/injection, schedule: Q04DX002 (ip), vehicle: saline with Tween-80) was 101 % of control, the T/C (endpoint: mean survival time, dose: 200.0 mg/kg/injection, schedule: Q04DX002 (ip), vehicle: saline with Tween-80) was 97 % of control and the T/C (endpoint: mean survival time, dose: 400.0 mg/kg/injection, schedule: Q04DX002 (ip), vehicle: saline with Tween-80) was 101 % of control.

For CSc1cc(C)[o+]c(C)c1, the T/C (endpoint: mean survival time, dose: 12.5 mg/kg/injection, schedule: Q01DX009 (ip), vehicle: Klucel (hydroxypropylcellulose) (HPC)) was 94 % of control, the T/C (endpoint: mean survival time, dose: 25.0 mg/kg/injection, schedule: Q01DX009 (ip), vehicle: Klucel (hydroxypropylcellulose) (HPC)) was 97 % of control and the T/C (endpoint: mean survival time, dose: 50.0 mg/kg/injection, schedule: Q01DX009 (ip), vehicle: Klucel (hydroxypropylcellulose) (HPC)) was 108 % of control. For the same compound, the T/C (endpoint: mean survival time, dose: 100.0 mg/kg/injection, schedule: Q01DX009 (ip), vehicle: Klucel (hydroxypropylcellulose) (HPC)) was 113 % of control and the T/C (endpoint: mean survival time, dose: 200.0 mg/kg/injection, schedule: Q01DX009 (ip), vehicle: Klucel (hydroxypropylcellulose) (HPC)) was 117 % of control.

With C=CC1CC(=O)N1Cc1ccccc1 (configuration not stated) the T/C [6] was 97 % of control, the T/C [7] was 92 % of control and the T/C [8] was 92 % of control.

O=C(c1ccccc1)C1CC1c1ccccc1 (configuration not stated) was tested, and the T/C (endpoint: mean survival time, dose: 100.0 mg/kg/injection, schedule: Q01DX009 (ip), vehicle: saline) was 101 % of control, the T/C (endpoint: mean survival time, dose: 200.0 mg/kg/injection, schedule: Q01DX009 (ip), vehicle: saline) was 90 % of control and the T/C (endpoint: mean survival time, dose: 400.0 mg/kg/injection, schedule: Q01DX009 (ip), vehicle: saline) was 94 % of control.

With Cc1cc(N2CCCN(C)CC2)nc(/N=C(\N)Nc2ccc(Cl)c(Cl)c2)n1 the T/C [6] was 88 % of control.

CCC(CO)Nc1nc2c(c(=O)n(C)c(=O)n2C)n1C (configuration not stated) was tested, and the T/C (endpoint: mean survival time, dose: 12.5 mg/kg/injection, schedule: Q01DX005 (ip), vehicle: distilled water + Tween-80) was 101 % of control, the T/C (endpoint: mean survival time, dose: 25.0 mg/kg/injection, schedule: Q01DX005 (ip), vehicle: distilled water + Tween-80) was 100 % of control and the T/C (endpoint: mean survival time, dose: 50.0 mg/kg/injection, schedule: Q01DX005 (ip), vehicle: distilled water + Tween-80) was 101 % of control. The T/C (endpoint: mean survival time, dose: 100.0 mg/kg/injection, schedule: Q01DX005 (ip), vehicle: distilled water + Tween-80) was 94 % of control and the T/C (endpoint: mean survival time, dose: 200.0 mg/kg/injection, schedule: Q01DX005 (ip), vehicle: distilled water + Tween-80) was 101 % of control.

O=C(O)/C=N/NS(=O)(=O)c1ccc(Cl)cc1 was tested, and the T/C (endpoint: mean survival time, dose: 12.5 mg/kg/injection, schedule: Q04DX003 (ip), vehicle: other) was 97 % of control, the T/C (endpoint: mean survival time, dose: 25.0 mg/kg/injection, schedule: Q04DX003 (ip), vehicle: other) was 105 % of control and the T/C (endpoint: mean survival time, dose: 50.0 mg/kg/injection, schedule: Q04DX003 (ip), vehicle: other) was 118 % of control and 122 % of control. The T/C (endpoint: mean survival time, dose: 200.0 mg/kg/injection, schedule: Q04DX003 (ip), vehicle: other) was 174 % of control.

O=C1N(CC2CO2)CCN1CC1CO1 (configuration not stated) was tested, and the T/C (endpoint: median survival time, dose: 12.5 mg/kg/injection, schedule: Q01DX009 (ip), vehicle: saline) was 123 % of control, the T/C (endpoint: median survival time, dose: 50.0 mg/kg/injection, schedule: Q01DX009 (ip), vehicle: saline) was 157 % of control and the T/C (endpoint: median survival time, dose: 100.0 mg/kg/injection, schedule: Q01DX009 (ip), vehicle: saline) was 174 % of control. For the same compound, the T/C (endpoint: median survival time, dose: 200.0 mg/kg/injection, schedule: Q01DX009 (ip), vehicle: saline) was 277 % of control and the T/C (endpoint: median survival time, dose: 400.0 mg/kg/injection, schedule: Q01DX009 (ip), vehicle: saline) was 86 % of control.

For CC(=O)NC1Cn2c3c(c(COC(N)=O)c2C1O)C(=O)C(Nc1ccccc1)=C(C)C3=O (configuration not stated), the T/C (endpoint: mean survival time, dose: 2.08 mg/kg/injection, schedule: Q01DX001 (ip), vehicle: carboxymethylcellulose (CMC)) was 86 % of control, the T/C (endpoint: mean survival time, dose: 3.1 mg/kg/injection, schedule: Q01DX001 (ip), vehicle: carboxymethylcellulose (CMC)) was 98 % of control and the T/C (endpoint: mean survival time, dose: 4.7 mg/kg/injection, schedule: Q01DX001 (ip), vehicle: carboxymethylcellulose (CMC)) was 93 % of control.

With Cc1cc2sccc2cn1 the T/C [1] was 100 % of control, the T/C [2] was 98 % of control and the T/C (endpoint: mean survival time, dose: 100.0 mg/kg/injection, schedule: Q01DX009 (ip), vehicle: saline with Tween-80) was 98 % of control. The T/C [6] was 90 % of control.

With OCCN1CCCCCCC1 the T/C (endpoint: mean survival time, dose: 75.0 mg/kg/injection, schedule: Q01DX001 (ip), vehicle: saline) was 95 % of control and the T/C (endpoint: mean survival time, dose: 150.0 mg/kg/injection, schedule: Q01DX001 (ip), vehicle: saline) was 102 % of control.

For CN(Cc1ccc([N+](=O)[O-])cc1)N=Nc1ccc(C(=O)O)cc1, the T/C (endpoint: mean survival time, dose: 25.0 mg/kg/injection, schedule: Q01DX009 (ip), vehicle: other) was 94 % of control, the T/C (endpoint: mean survival time, dose: 50.0 mg/kg/injection, schedule: Q01DX009 (ip), vehicle: other) was 97 % of control and the T/C (endpoint: mean survival time, dose: 100.0 mg/kg/injection, schedule: Q01DX009 (ip), vehicle: other) was 86 % of control. The T/C (endpoint: mean survival time, dose: 200.0 mg/kg/injection, schedule: Q01DX009 (ip), vehicle: other) was 94 % of control.

For CCCCC(C)C1(CCC)NC(C)(C)CC(C)O1 (configuration not stated), the T/C [3] was 97 % of control and the T/C [4] was 101 % of control.
